The subject of assay [1] is non-expressing oocytes. Nature of the assay: cells. Type of assay: cell-based, Xenopus laevis. An excerpt: The orientation of PfCRT in the parasite’s DV membrane, and also in the oocyte plasma membrane, is such that its N- and C-termini extend into the cytosol. The oocytes were suspended in a reaction buffer adjusted to pH 5.5 to mimic the pH of the DV lumen[1],[2]. In this scenario, the transport of a substrate via PfCRT from the acidic extracellular solution into the oocyte cytosol[15] is analogous to the parasite’s PfCRT-mediated efflux of a substrate from the acidic DV and into the cytosol. Unless specified otherwise, this is the direction in which substrate transport was measured in the oocyte assays.
(§1) Unless specified otherwise, the transport assays were conducted over 1.5 h at 27.5 °C and the reaction buffer was ND96 (96 mM NaCl, 2 mM KCl, 1 mM MgCl2, 1.8 mM CaCl2, 10 mM MES and 10 mM Tris-base) at pH 5.5.
Ten oocytes were washed twice with the relevant ND96 buffer. […] The assay was terminated by removing the reaction buffer and washing the oocytes with ice-cold ND96 buffer. The oocytes were lysed in 10% (w/v) sodium dodecyl sulfate (SDS) and the radioactivity accumulated within each oocyte was measured with a MicroBeta^2 microplate liquid scintillation analyser (PerkinElmer).
(§2) At least four independent experiments were performed (on different days and using oocytes from different frogs), and within each experiment measurements were made from ten oocytes per treatment.

Assay [2] deals with non-expressing oocytes. Format: cell-based, Xenopus laevis. On the procedure:
as §1
The intracellular concentrations were calculated using previous estimates of the volume of stage V–VI oocytes (~400 nL[60]). […] The oocytes were injected with VF-6 suspended in 25 nL ND96 buffer adjusted to pH 5.0, 5.5, 6.0 or 7.0, which corresponded to the injection of 2.5–250 fmol of H^+. The Na^+-dependence of the trans-stimulatory effect of VF-6 was assessed by injecting the oocytes with VF-6 suspended in ND96 buffer (pH 5.5) or a Na^+-free version of this buffer (the Na^+ was replaced with choline).
as §2

In assay [3] the target is T1, PfCRT^Ecu1110 (Plasmodium falciparum, UniProt Q9N623, A220S/I356L/K76T/N326D). Nature of the assay: [3H]CQ uptake into Xenopus oocytes, cis-inhibition by unlabelled solute. To be noted: for PfCRT-mediated [3H]CQ transport, cis-inhibition (% PfCRTEcu1110 control): PfCRTEcu1110 oocytes, background [3H]CQ accumulation subtracted, normalised to oocyte type control; for [3H]CQ transport (% PfCRTEcu1110 control), cis-inhibition, PfCRTEcu1110: PfCRT-mediated component (background subtracted), sheet title says normalised to PfCRTDd2 control, mean ± SEM. Format: cell-based. The essentials:
(§3)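 Inward transport into oocyte cytosol from pH 5.5 medium models PfCRT efflux from the acidic digestive vacuole. Incubation 1.5 h, 27.5 °C; termination by ice-cold washes; lysate radioactivity counted.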

For assay [4], the target named is T2, PfCRT^Dd2 (Plasmodium falciparum, UniProt Q9N623, A220S/I356T/K76T/M74I/N326S/N75E/Q271E/R371I). The description is as above. Type of assay: cell-based. To be noted: for PfCRT-mediated [3H]CQ transport, cis-inhibition (% PfCRTDd2 control): PfCRTDd2 oocytes, background [3H]CQ accumulation subtracted, normalised to oocyte type control. The essentials: as §3
T2 sequence (Q9N623 whole entry A220S/I356T/K76T/M74I/N326S/N75E/Q271E/R371I): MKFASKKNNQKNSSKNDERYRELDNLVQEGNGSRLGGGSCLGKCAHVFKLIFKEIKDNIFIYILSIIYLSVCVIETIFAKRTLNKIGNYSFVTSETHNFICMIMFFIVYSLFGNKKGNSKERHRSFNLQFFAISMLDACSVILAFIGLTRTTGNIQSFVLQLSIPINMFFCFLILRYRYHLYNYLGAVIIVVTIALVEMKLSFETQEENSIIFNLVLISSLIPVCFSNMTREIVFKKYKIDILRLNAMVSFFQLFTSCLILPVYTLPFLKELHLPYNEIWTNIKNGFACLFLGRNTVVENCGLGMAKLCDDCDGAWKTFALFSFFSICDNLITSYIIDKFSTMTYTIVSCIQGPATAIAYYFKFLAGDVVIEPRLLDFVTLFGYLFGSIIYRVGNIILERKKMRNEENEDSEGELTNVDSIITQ
The target in assay [5] is T1, PfCRT^Ecu1110. Nature of the assay: cell-based. Type of assay: cell-based. To be noted: for [3H]CQ transport (% PfCRTDd2 control), trans-stimulation, PfCRTEcu1110: PfCRT-mediated component (background subtracted), sheet title says normalised to PfCRTDd2 control, mean ± SEM, SEM. The essentials: (§4)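 Oocytes (ten per treatment, ≥4 independent frogs/days) were preloaded by injecting VF-6 in 25 nL ND96 at pH 5.0, 5.5, 6.0 or 7.0, or Na^+-free choline buffer, then uptake run 1.5 h, 27.5 °C, ND96 pH 5.5 by default. Internal concentrations assumed ~400 nL oocyte volume.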

The target of assay [6] is T2, PfCRT^Dd2. Nature of the assay: cell-based. Type of assay: cell-based. An outline of the steps: as §4
Assay [7] deals with PfCRT^3D7 (Plasmodium falciparum, UniProt Q8IBZ9). Nature of the assay: cell-based. Format: cell-based. The note with it: for [3H]CQ transport, PfCRT3D7 (% PfCRT3D7 control): solute 45 mM injected (estimated intracellular). An outline of the steps:
as §4

The target of assay [8] is T3, PfNT1 (Plasmodium falciparum, UniProt Q8IDM6).
T3 construct: expressed in transfected cells; host or cells: Xenopus laevis oocytes (stage V-VI), cRNA-injected
T3 sequence (Q8IDM6 whole entry): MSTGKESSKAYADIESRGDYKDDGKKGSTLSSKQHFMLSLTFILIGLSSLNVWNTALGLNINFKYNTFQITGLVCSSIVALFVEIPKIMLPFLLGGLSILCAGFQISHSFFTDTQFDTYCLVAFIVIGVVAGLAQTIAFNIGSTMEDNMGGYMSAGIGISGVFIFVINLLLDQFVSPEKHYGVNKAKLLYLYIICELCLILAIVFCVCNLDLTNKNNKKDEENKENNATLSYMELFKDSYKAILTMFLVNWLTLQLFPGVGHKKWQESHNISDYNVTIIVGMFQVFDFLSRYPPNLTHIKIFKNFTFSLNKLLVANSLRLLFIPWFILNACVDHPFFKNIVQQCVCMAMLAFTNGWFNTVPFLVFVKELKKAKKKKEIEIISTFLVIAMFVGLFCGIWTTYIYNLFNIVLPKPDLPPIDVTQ
Nature of the assay: cell-based. Format: cell-based. The note with it: trans-stimulation, solute 45 mM injected (estimated intracellular). An outline of the steps: as §4

Setting [9] is: read-out: PfCRT-mediated [3H]CQ transport, cis-inhibition (% PfCRTEcu1110 control).
Where [10] appears, read: read-out: [3H]CQ transport (% PfCRTEcu1110 control), cis-inhibition, PfCRTEcu1110, SEM.
Where [11] appears, read: read-out: PfCRT-mediated [3H]CQ transport, cis-inhibition (% PfCRTDd2 control).
Setting [12] is: trans-stimulation, Experiment 1.
The mark [13] stands for this setting: trans-stimulation, Experiment 2.
The mark [14] stands for this setting: trans-stimulation, Experiment 3.
The mark [15] stands for this setting: trans-stimulation, Experiment 4.

Values joined by “and” are separate entries in the source; they are usually repeats but may differ in a detail not shown here. Identical values can stand only once. Like-named read-outs stand apart in the source and are kept apart here. Where no end group is shown, it is not given here.

These results are taken from publication PMC7413254 (Nature Communications, 2020).

The term inhibition denotes the drop in the measured response relative to a control, in per cent.

T1 sequence (Q9N623 whole entry A220S/I356L/K76T/N326D): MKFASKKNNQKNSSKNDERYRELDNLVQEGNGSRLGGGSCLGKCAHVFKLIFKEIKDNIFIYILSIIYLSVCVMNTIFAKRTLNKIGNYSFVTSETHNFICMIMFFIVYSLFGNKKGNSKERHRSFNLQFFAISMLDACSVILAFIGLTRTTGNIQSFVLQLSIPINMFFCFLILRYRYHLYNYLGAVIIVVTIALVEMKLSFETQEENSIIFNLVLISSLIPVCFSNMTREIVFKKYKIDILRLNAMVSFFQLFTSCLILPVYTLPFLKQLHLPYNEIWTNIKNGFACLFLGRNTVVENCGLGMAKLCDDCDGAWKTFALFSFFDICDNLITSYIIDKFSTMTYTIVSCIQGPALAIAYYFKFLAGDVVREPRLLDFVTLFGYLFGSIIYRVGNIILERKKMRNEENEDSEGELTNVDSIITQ
PfCRT^3D7, sequence (Q8IBZ9 59-398): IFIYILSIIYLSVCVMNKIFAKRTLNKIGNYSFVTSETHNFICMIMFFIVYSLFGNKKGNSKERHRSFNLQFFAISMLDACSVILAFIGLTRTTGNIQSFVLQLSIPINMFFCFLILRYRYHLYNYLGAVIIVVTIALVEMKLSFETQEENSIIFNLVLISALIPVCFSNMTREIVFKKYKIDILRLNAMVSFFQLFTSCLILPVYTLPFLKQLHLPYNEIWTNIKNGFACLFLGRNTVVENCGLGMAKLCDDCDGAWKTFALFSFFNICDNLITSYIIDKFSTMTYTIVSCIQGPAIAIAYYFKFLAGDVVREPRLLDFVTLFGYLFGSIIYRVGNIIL

As for `NCCCNCCCCNCCCN` [Spermine], the “Cis-inhibition data: total [3H]CQ transport, normalised to the oocyte type control” value in assay [1] was 99 ± 3.7 and 99 ± 4.1 and 100 ± 4.8. Further, in assay [2], the “Trans-stimulation data: total [3H]CQ transport, normalised to the oocyte type control” value is 99 ± 3.8 and 98 ± 2.9.

On to `C[N+](C)(C)CCO` [Choline], for which the “Cis-inhibition data: total [3H]CQ transport, normalised to the oocyte type control” value in assay [1] is 100 ± 5.4 and 99 ± 4.3 and 98 ± 3.6. Also, in assay [2], the “Trans-stimulation data: total [3H]CQ transport, normalised to the oocyte type control” value was 99 ± 2.8 and 100 ± 2.6.

As to HVDDM [HM-5], the inhibition at 1000 µM in assay [3] (setting [9]) was 41 ± 3.5%; in assay [4] (setting [11]), 19 ± 2%. The inhibition at 2000 µM in assay [3] (setting [9]) is 32 ± 2.1%; in assay [3] (setting [10]), 10 ± 0.5%; in assay [4] (setting [11]), 9 ± 0.1%. For the same compound, the inhibition at 500 µM in assay [3] (setting [10]) was found to be 14 ± 0.1%; in assay [4] (setting [11]), 32 ± 0.8%. The activity at 5000 µM stood at 122 ± 1.1% in assay [5] ([…], pH 5.5, read-out: PfCRT-mediated [3H]CQ transport, trans-stimulation (% PfCRTEcu1110 control), [test solute]i = 5 mM (intracellular), PfCRTEcu1110 oocytes, normalised to oocyte type control); 100 ± 2.5% in assay [6] ([…], pH 5.5, read-out: PfCRT-mediated [3H]CQ transport, trans-stimulation (% PfCRTDd2 control), [test solute]i = 5 mM (intracellular), PfCRTDd2 oocytes, normalised to oocyte type control); 100 ± 2.5% in assay [6] ([…], pH 5.5, read-out: [3H]CQ transport (% PfCRTDd2 control), trans-stimulation, PfCRTDd2, trans-stimulation, [test solute]i = 5 mM (injected), PfCRT-mediated component (background subtracted), mean ± SEM, SEM); 130 ± 4.2% in assay [7] ([…], read-out: PfCRT-mediated [3H]CQ transport, trans-stimulation (% PfCRT3D7 control), [test solute]i = 5 mM (intracellular), PfCRT3D7 oocytes, normalised to oocyte type control). Further, the activity at 45000 µM is 113 ± 2.2% in assay [6] ([…], pH 5.5, read-out: [3H]CQ transport (% PfCRTDd2 control), trans-stimulation, PfCRTDd2, trans-stimulation, [test solute]i = 45 mM (30 mM for some solutes due to solubility), PfCRT-mediated component (background subtracted), mean ± SEM, SEM) and 178 ± 5.2% in assay [7] ([…], read-out: PfCRT-mediated [3H]CQ transport, trans-stimulation (% PfCRT3D7 control), [test solute]i = 45 mM (intracellular; 30 mM for some solutes due to solubility), PfCRT3D7 oocytes, normalised to oocyte type control). For the same compound, the “[3H]CQ transport, PfCRT3D7 (% PfCRT3D7 control)” value in assay [7] (setting [12]) is on record as 193.43 % PfCRT3D7 control; in assay [7] (setting [13]), 185.08 % PfCRT3D7 control; in assay [7] (setting [14]) it was 185.21 % PfCRT3D7 control; in assay [7] (setting [15]), 174.23 % PfCRT3D7 control. For the same compound, in assay [7] (trans-stimulation, [test solute]i = 5 mM (injected), PfCRT-mediated component (background subtracted), sheet title says normalised to PfCRTDd2 control, mean ± SEM, SEM), the “[3H]CQ transport (% PfCRT3D7 control), trans-stimulation, PfCRT3D7” value was 0.2 ± 0.01 % PfCRT3D7 control. For the same compound, the “[3H]CQ transport, PfNT1 (% PfCRTDd2 control)” value in assay [8] (Experiment 1) was 3.35 % PfCRTDd2 control; in assay [8] (Experiment 2), 3.11 % PfCRTDd2 control; in assay [8] (Experiment 3), 3.44 % PfCRTDd2 control; in assay [8] (Experiment 4) it was 3.27 % PfCRTDd2 control.

As to YFPHF [YF-5], the “PfCRT-mediated [3H]CQ transport, cis-inhibition (% PfCRTEcu1110 control)” value in assay [3] ([test solute] = 0.5 mM) turned out to be 63 ± 3.5 % PfCRTEcu1110 control; in assay [3] ([test solute] = 1 mM) it was 48 ± 1.0 % PfCRTEcu1110 control; in assay [3] ([test solute] = 2 mM), 32 ± 2.1 % PfCRTEcu1110 control. In addition, the “[3H]CQ transport (% PfCRTEcu1110 control), cis-inhibition, PfCRTEcu1110” value was 20 ± 0.4 % PfCRTEcu1110 control in assay [3] ([test solute] = 0.5 mM, SEM); 15 ± 0.1 % PfCRTEcu1110 control in assay [3] ([test solute] = 1 mM, SEM); 10 ± 0.3 % PfCRTEcu1110 control in assay [3] ([test solute] = 2 mM, SEM). Besides, the “PfCRT-mediated [3H]CQ transport, cis-inhibition (% PfCRTDd2 control)” value turned out to be 53 ± 3.1 % PfCRTDd2 control in assay [4] ([test solute] = 0.5 mM), 39 ± 2.1 % PfCRTDd2 control in assay [4] ([test solute] = 1 mM) and 7.2 ± 0.1 % PfCRTDd2 control in assay [4] ([test solute] = 2 mM). For the same compound, the “PfCRT-mediated [3H]CQ transport, trans-stimulation (% PfCRTEcu1110 control)” value in assay [5] ([test solute]i = 5 mM (intracellular), PfCRTEcu1110 oocytes, normalised to oocyte type control) was 120 ± 2.7 % PfCRTEcu1110 control; in assay [5] ([test solute]i = 45 mM (intracellular; 30 mM for some solutes due to solubility), PfCRTEcu1110 oocytes, normalised to oocyte type control), 131 ± 3.6 % PfCRTEcu1110 control. Besides, the entries for the “[3H]CQ transport (% PfCRTDd2 control), trans-stimulation, PfCRTEcu1110” value in assay [5] ([test solute]i = 5 mM (injected)) and in assay [5] ([test solute]i = 45 mM (30 mM for some solutes due to solubility)) were 37 ± 1.5 % PfCRTEcu1110 control and 40 ± 1.5 % PfCRTEcu1110 control, respectively. In addition, the “PfCRT-mediated [3H]CQ transport, trans-stimulation (% PfCRTDd2 control)” value in assay [6] ([test solute]i = 5 mM (intracellular), PfCRTDd2 oocytes, normalised to oocyte type control) is 97 ± 3.4 % PfCRTDd2 control; in assay [6] ([test solute]i = 45 mM (intracellular; 30 mM for some solutes due to solubility), PfCRTDd2 oocytes, normalised to oocyte type control) it was 113 ± 2.4 % PfCRTDd2 control. The “[3H]CQ transport (% PfCRTDd2 control), trans-stimulation, PfCRTDd2” value in assay [6] ([test solute]i = 5 mM (injected), PfCRT-mediated component (background subtracted), mean ± SEM, SEM) was 97 ± 3.4 % PfCRTDd2 control; in assay [6] ([test solute]i = 45 mM (30 mM for some solutes due to solubility), PfCRT-mediated component (background subtracted), mean ± SEM, SEM), 113 ± 2.4 % PfCRTDd2 control. The “PfCRT-mediated [3H]CQ transport, trans-stimulation (% PfCRT3D7 control)” value came out at 128 ± 2.3 % PfCRT3D7 control in assay [7] ([test solute]i = 5 mM (intracellular), PfCRT3D7 oocytes, normalised to oocyte type control) and 147 ± 4.2 % PfCRT3D7 control in assay [7] ([test solute]i = 45 mM (intracellular; 30 mM for some solutes due to solubility), PfCRT3D7 oocytes, normalised to oocyte type control). The “[3H]CQ transport, PfCRT3D7 (% PfCRT3D7 control)” value is 142.23 % PfCRT3D7 control in assay [7] (setting [12]), 155.33 % PfCRT3D7 control in assay [7] (setting [13]), 162.85 % PfCRT3D7 control in assay [7] (setting [14]) and 149.32 % PfCRT3D7 control in assay [7] (setting [15]). The “[3H]CQ transport, PfNT1 (% PfCRTDd2 control)” value in assay [8] (Experiment 1) is 2.73 % PfCRTDd2 control; in assay [8] (Experiment 2) it was 2.48 % PfCRTDd2 control; in assay [8] (Experiment 3), 2.58 % PfCRTDd2 control; in assay [8] (Experiment 4), 2.37 % PfCRTDd2 control.
